Results on 13 compounds are retold here after US12668584B2, “Heterocyclic compounds as kinase inhibitors for therapeutic uses” (National Health Research Institutes, priority 2019, dated 2026).

Bounds are passed on as bounds.

One experiment deals with M-NFS-60 cells. The experiment in a line: MTS cell viability assay, M-NFS-60. It is filed as cell-based. To be noted: 72 h, read-out: Cellular Proliferation Assay M-NFS-60 (nM) GI50. How it is done:
(§1) Studies were conducted to evaluate […] anticancer activity of certain compounds described in EXAMPLE 1 using 3-(4,5-dimethylthiazol-2-yl)-5-(3-carboxymethoxyphenyl)-2-(4-sulfophenyl)-2H-tetrazolium) (MTS) cell viability assays. Results from these studies are shown in Table 2 below (see columns 3 and 4).
(§2) The cell lines M-NFS-60 (ATCC® CRL-1838™) and BaF3-CSF1R-1600 were obtained from American Type Culture Collection (ATCC, Manassas, VA, USA). The stable BaF3-CSF1R-1600 cell line expresses ETV6-CSF1R fusion protein consisting of N-terminal ETS-variant gene 6 protein (ETV6 residues M1-G337) and CSF1R tyrosine kinase (CSF1R residues L533-C972). The M-NSF-60 and BaF3-CSF1R-1600 cells were cultured in RPMI1640 medium supplemented with 10% fetal bovine serum, 0.05 mM 2-ME, 10 U/ml penicillin, and 10 µg/ml streptomycin at 37° C. and 5% CO2.
(§3) M-NFS-60 and BaF3-CSF1R-1600 cells were seeded in 96-well plates at a density of 10000 cells/100 μl and 8000 cells/100 μl per well, respectively, for 16 h and treated with vehicle or various concentrations of test compounds in medium for 72 h. Viable cells were quantified using the MTS method (Promega, Madison, WI, USA) according to manufacturer's recommended protocol. The results were determined by measuring absorbance at 490 nm using a plate reader (Victor 2). The GI50 value was defined as the amount of compound that caused 50% reduction in cell viability in comparison with DMSO-treated (vehicle) control and was calculated using Prism GraphPad Prism version 6 software (GraphPad).
(Tetrazolium assays rely on reduction of a dye to a coloured formazan, in cell work by metabolically active cells.)

In experiment [1] the test system is BaF3-CSF1R-1600 cells (express ETV6-CSF1R fusion protein). In words: MTS cell viability assay, BaF3-CSF1R-1600. Format: cell-based. Particulars: 72 h, read-out: Cellular Proliferation Assay BaF3-CSF1R GI50. How it is done:
as §1, §2, §3

Experiment [2] addresses T1, CSF1R kinase (recombinant N-terminal GST-CSF1R, residues L534-C972) (Homo sapiens, UniProt P07333).
T1 construct: Recombinant N-terminal GST-CSF1R (CSF1R residues L534-C972) containing the CSFIR kinase domain; made in house; host or cells: Sf9 insect cells
T1 sequence (P07333 534-972): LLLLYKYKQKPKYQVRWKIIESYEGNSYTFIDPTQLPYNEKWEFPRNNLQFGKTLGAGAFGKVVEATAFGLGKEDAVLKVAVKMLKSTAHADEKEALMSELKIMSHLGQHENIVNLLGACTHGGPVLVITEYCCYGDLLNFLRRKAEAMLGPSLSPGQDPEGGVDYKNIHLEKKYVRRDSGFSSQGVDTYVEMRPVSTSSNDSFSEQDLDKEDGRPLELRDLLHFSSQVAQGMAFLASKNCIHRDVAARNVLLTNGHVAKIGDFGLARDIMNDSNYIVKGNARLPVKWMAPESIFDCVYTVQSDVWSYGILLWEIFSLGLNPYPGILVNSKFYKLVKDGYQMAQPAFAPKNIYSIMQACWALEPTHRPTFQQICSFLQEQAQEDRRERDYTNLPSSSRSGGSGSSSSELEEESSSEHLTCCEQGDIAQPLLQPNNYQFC
In words: CSF1R Kinase-Glo assay. Format: biochemical. To be noted: 40 μM ATP, 30° C. 180 min, read-out: Enzymatic Assay CSF1R enzyme IC50. As to the method:
A study was conducted to test certain compounds described in EXAMPLE 1 in inhibiting CSF1R kinase activity.
Activity of CSF1R kinase was determined using a CSF1R Kinase-Glo assay. Recombinant N-terminal GST-CSF1R (CSF1R residues L534-C972) containing the CSFIR kinase domain was expressed in Sf9 insect cells and purified. The kinase assay was carried out in 96-well plates at 30° C. for 180 min with the tested compounds in a final volume of 50 μl including the following components: 25 mM Tris-HCl pH 7.4, 4 mM MnCl2, 10 mM MgCl2, 0.01% BSA, 0.5 mM NA3VO4, 0.02% Triton X-100, 40 μM ATP, 2 mM DTT and 20 μM poly(Glu,Tyr) 4:1 peptide, and 600 ng recombinant GST-CSF1R. Following incubation, 50 μl Kinase-Glo Plus Reagent (Promega, Madison, WI, USA) was added and the mixture was incubated at 25° C. for 20 min. A 70-μL aliquot of each reaction mixture was transferred to a black microtiter plate and luminescence was measured on Wallac Vector 1420 multilabel counter (PerkinElmer, Shelton, CT, USA). Percentage inhibition values were obtained by comparison of reaction rate with the rates in control wells (i.e., in the absence of test compound). IC50 values were calculated from a series of percentage inhibition values determined at a range of test compound concentrations using GraphPad Prism version 6 software (GraphPad, San Diego, CA, USA).
(Kinase-Glo reads ATP consumption through a luciferase reaction.)

In the case of `COc1ccc(NC(=O)Nc2ccc(Oc3ncnc4cc(N(C)C)ccc34)cc2)cc1Cl` [Compound 105], the GI50 (with M-NFS-60 cells; in experiment [1]) was 20 to 100 nM in each case. Also, in experiment [2], the IC50 lay within 20 to 100 nM.
As for `CN(C)c1ccc2c(Oc3ccc(NC(=O)NCc4nccs4)cc3)ncnc2c1` [Compound 101], the GI50 (with M-NFS-60 cells; in experiment [1]) was 100 to 1000 nM throughout. The 50% inhibitory concentration (IC50) in experiment [2] lay in the range of 20 to 100 nM.
For `CN(C)c1ccc2c(Oc3ccc(NC(=O)NCc4ccccc4)cc3)ncnc2c1` [Compound 51], the GI50 (with M-NFS-60 cells; in experiment [1]) was 20 to 100 nM in each case. Besides, in experiment [2], the IC50 is below 20 nM.
For `CN(C)c1ccc2c(Oc3ccc(NC(=O)Nc4cccc(Cl)c4)cc3)ncnc2c1` [Compound 16], the GI50 (with M-NFS-60 cells; in experiment [1]) was 20 to 100 nM each time. Besides, in experiment [2], the half-maximal inhibitory concentration (IC50) is below 20 nM.
On to `CN(C)c1ccc2c(Oc3ccc(NC(=O)Nc4ccc(F)cc4)cc3)ncnc2c1` [Compound 106], for which the GI50 in the experiment on M-NFS-60 cells was 100 to 1000 nM; in experiment [1], above 1000 nM. In addition, the IC50 in experiment [2] was below 20 nM.
The matching figures for `CN(C)c1ccc2c(Oc3ccc(NC(=O)Nc4ccccc4Cl)cc3)ncnc2c1` [Compound 15]: 100 to 1000 nM, 20 to 100 nM and below 20 nM.
Taken in the same sequence, the figures for `COc1ccc(CNC(=O)Nc2ccc(Oc3ncnc4cc(N(C)C)ccc34)cc2)cc1` [Compound 59] were 20 to 100 nM, 20 to 100 nM and below 20 nM.
Consider `COC1CCN(c2ccc3c(Oc4ccc(NC(=O)Nc5ccc(Cl)cc5)cc4)ncnc3c2)CC1` [Compound 20], for which the GI50 (in the experiment with M-NFS-60 cells; in experiment [1]) was 20 to 100 nM each time. Besides, the IC50 in experiment [2] was below 20 nM.
On to `O=C(NCc1ccc(C(F)(F)F)nc1)Nc1ccc(Oc2ncnc3cc(N4CCN(C5COC5)CC4)ccc23)cc1` [Compound 98], for which the GI50 in the experiment on M-NFS-60 cells is 20 to 100 nM; in experiment [1], below 20 nM. In addition, the IC50 in experiment [2] is below 20 nM.
Consider `O=C(NCc1ccc(C(F)(F)F)nc1)Nc1ccc(Oc2ncnc3cc(N4CCOCC4)ccc23)cc1` [Compound 99], for which the GI50 (in the experiment on M-NFS-60 cells; in experiment [1]) was 20 to 100 nM in each case. Besides, in experiment [2], the IC50 is below 20 nM.
Turning to `O=C(NCc1ccc(C(F)(F)F)nc1)Nc1ccc(Oc2ncnc3cc(N4CCC(O)CC4)ccc23)cc1` [Compound 30, 1-(4-((7-(4-hydroxypiperidin-1-yl)quinazolin-4-yl)oxy)phenyl)-3-((6-(trifluoromethyl)pyridin-3-yl)methyl)urea], the GI50 (in the experiment with M-NFS-60 cells; in experiment [1]) was 20 to 100 nM in each case. For the same compound, in experiment [2], the 50% inhibitory concentration (IC50) was below 20 nM.
`COc1cc2nccc(Oc3ccc(NC(=O)NCc4ccc(C(F)(F)F)nc4)cc3)c2cc1OC` [Compound 26]: the GI50 in the experiment on M-NFS-60 cells is 100 to 1000 nM; in experiment [1], 20 to 100 nM. Further, the IC50 in experiment [2] is 20 to 100 nM.
For the compound `CN(CCCN1CCOCC1)c1ccc2c(Oc3ccc(NC(=O)NCc4ccc(C(F)(F)F)nc4)cc3)ncnc2c1` [Compound 45], the GI50 fell in the range of 100 to 1000 nM in the experiment with M-NFS-60 cells and 20 to 100 nM in experiment [1]. Also, in experiment [2], the IC50 is below 20 nM.

As usually defined, the IC50 is the point on the concentration scale where inhibition reaches its midpoint.
